Measurements published in US8999974B2, “Acyl piperazine derivatives as TTX-S blockers” (Raqualia Pharma Inc., priority 2010, dated 2015).

Target: T1, human NaV1.3 (Homo sapiens, UniProt Q9NY46)
T1 construct: expressed in transfected cells; host or cells: HEK293
Experiment: FRET assay (EFS, FDSS) on HEK293 cells expressing human NaV1.3 channels
Type: cell-based
Conditions: FRET assay, HEK293 cells expressing human NaV1.3; read-out: IC50 against Nav1.3
Experimental: This screen was used to determine the effects of compounds on human NaV1.3, human Nav1.7, and human Nav1.5 channels, utilising electrical field stimulation (EFS) system in 96-well plate format on FDSS (Hamamatsu Photonics) platform. The change of membrane potential was monitored with FRET dye pair, oxonol (DiSBAC2(3)) and coumarin (CC2-DMPE).
Each HEK293 cells expressing human NaV1.3 channels and HEK293 cells expressing human NaV1.5 channels were grown in T225 flasks, in a 5% CO2 humidified incubator to about 80% confluence. Media composition consisted of Dulbecco's Modified Eagle Medium (high glucose), 10% FCS, 100 units/ml Penicillin, 100 microgram/ml Streptomycin and 500 microgram/ml Geneticine.
Protocol: • Seeded each cell lines (1×10^5 cells/well) into poly-D-lysine coated 96-well plates prior to experimentation. • Incubated at 37° C. in 5% CO2 for 24 hours. • Washed each well with assay buffer (140 mM NaCl, 4.5 mM KCl, 10 mM D-Glucose, 2 mM CaCl2, 1 mM MgCl2, 10 mM HEPES, pH 7.4 adjusted with NaOH) twice. • Added 1st loading solution containing 10 microM CC2-DMPE and 0.06% Pluronic F-127 in assay buffer. • Incubated the plate at room temperature in dark for 1 hour. • Removed 1st loading solution and added 2nd loading solution containing 15 microM DiSBAC2(3), 0.555 mM VABSC-1 and 0.004% Pluronic F-127 in assay buffer. • Placed the plate under the dark at room temperature for 25 minutes. • Added compound solutions into the assay plate. • Set the assay plate in FDSS and placed an EFS device on the plate. • Measured EFS-induced fluorescent response by FDSS.
The data were analyzed and reported as normalized ratios of intensities measured at […]. The process of calculating these ratios was performed as follows:
[formula] This analysis was performed using a computerized specific program designed for FDSS generated data. Fluorescence ratio values were plotted using XLfit to determine an IC50 value for each compound.

T1 sequence (Q9NY46 whole entry): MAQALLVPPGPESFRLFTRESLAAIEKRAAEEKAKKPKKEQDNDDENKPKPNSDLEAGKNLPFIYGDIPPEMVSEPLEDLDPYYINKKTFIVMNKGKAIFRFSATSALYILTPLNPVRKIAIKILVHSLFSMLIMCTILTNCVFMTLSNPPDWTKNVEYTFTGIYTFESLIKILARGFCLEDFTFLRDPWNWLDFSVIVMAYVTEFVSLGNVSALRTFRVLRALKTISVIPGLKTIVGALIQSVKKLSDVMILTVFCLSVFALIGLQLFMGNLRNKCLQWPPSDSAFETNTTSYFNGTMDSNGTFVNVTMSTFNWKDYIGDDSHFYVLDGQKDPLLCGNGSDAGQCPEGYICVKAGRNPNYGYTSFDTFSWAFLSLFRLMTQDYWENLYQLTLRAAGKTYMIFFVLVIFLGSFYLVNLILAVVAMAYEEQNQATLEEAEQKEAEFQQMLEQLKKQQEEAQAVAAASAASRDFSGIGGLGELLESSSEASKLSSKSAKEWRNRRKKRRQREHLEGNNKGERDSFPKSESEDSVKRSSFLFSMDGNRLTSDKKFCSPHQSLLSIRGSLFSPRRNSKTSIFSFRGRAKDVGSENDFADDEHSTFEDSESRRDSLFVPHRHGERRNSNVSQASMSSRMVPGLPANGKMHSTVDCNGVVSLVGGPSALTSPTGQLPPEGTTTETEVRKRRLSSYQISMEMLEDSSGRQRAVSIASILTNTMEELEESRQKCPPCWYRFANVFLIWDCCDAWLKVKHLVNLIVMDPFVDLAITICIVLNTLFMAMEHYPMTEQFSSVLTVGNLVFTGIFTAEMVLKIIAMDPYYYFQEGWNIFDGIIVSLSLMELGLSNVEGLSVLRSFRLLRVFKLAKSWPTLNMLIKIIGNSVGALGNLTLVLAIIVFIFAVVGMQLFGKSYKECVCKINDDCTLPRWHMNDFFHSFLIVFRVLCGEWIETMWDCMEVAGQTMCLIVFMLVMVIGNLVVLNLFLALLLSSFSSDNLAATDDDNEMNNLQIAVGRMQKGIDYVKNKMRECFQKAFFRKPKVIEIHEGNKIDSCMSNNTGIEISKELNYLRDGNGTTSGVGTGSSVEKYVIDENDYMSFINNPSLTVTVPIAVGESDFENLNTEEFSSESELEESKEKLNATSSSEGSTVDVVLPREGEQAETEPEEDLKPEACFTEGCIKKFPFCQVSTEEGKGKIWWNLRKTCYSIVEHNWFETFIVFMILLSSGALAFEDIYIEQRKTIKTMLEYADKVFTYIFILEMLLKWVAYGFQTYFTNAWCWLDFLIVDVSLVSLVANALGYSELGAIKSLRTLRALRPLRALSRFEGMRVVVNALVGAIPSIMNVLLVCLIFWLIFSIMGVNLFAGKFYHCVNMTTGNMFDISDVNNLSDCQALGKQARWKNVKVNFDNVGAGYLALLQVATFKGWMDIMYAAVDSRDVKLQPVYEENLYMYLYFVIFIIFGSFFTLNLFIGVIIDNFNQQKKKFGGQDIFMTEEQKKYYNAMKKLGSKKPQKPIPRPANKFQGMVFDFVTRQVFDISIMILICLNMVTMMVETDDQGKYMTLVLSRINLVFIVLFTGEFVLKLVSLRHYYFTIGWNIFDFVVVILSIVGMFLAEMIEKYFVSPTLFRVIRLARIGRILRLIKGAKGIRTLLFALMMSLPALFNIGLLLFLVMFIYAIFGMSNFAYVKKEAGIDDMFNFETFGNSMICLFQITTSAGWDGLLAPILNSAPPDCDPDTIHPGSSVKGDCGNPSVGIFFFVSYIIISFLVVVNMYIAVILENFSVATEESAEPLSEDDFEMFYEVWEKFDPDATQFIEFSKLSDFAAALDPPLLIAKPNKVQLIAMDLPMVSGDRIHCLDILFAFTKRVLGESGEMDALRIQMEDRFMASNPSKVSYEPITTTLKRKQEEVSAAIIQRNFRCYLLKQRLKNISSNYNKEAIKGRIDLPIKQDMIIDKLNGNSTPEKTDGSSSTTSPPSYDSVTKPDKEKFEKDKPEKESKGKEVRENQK

Which IC50 does the source give for CC(C)COc1cc(N2CCN(C(=O)CN3CCc4ccccc4C3=O)CC2)ncn1 [Example 98, 2-(2-(4-(6-isobutoxypyrimidin-4-yl)piperazin-1-yl)-2-oxoethyl)-3,4-dihydroisoquinolin-1(2H)-one] here?
Its IC50 is less than 3 µM.

How did the IC50 turn out when CC(C)COc1cc(N2CCN(C(=O)CS(=O)(=O)c3ccc(Cl)cc3)CC2)ncn1 [Example 121, 2-((4-chlorophenyl)sulfonyl)-1-(4-(6-isobutoxypyrimidin-4-yl)piperazin-1-yl)ethanone] was run?
Its IC50 is less than 3 µM.

With CC(C)COc1cc(N2CCN(C(=O)[C@@H](C)Oc3ccc(F)cc3)CC2)ncn1 [Example 152, (R)-2-(4-fluorophenoxy)-1-(4-(6-isobutoxypyrimidin-4-yl)piperazin-1-yl)propan-1-one] as the compound, how does the IC50 read?
The IC50 was less than 3 µM.

How did the IC50 turn out when CC(C)COc1cc(N2CCN(C(=O)COc3ccc(F)c(F)c3)CC2)ncn1 [Example 97, 2-(3,4-difluorophenoxy)-1-(4-(6-isobutoxypyrimidin-4-yl)piperazin-1-yl)ethanone] was run?
The IC50 was less than 3 µM.

Which IC50 does the source give for CCOc1cccc(C(=O)N2CCN(c3cc(OCC(C)C)ncn3)CC2)n1 [Example 231, (6-ethoxypyridin-2-yl)(4-(6-isobutoxypyrimidn-4-yl)piperazin-1-yl)methanone] here?
Its IC50 is less than 3 µM.

O=C(c1n[nH]c2ccccc12)N1CCN(c2cc(OCC(F)(F)F)ncn2)CC1 [Example 68, (1H-indazol-3-yl)(4-(6-(2,2,2-trifluoroethoxy)pyrimidin-4-yl)piperazin-1-yl)methanone] was tested. Which IC50 did it give?
The IC50 was less than 3 µM.

For O=C(c1cnc2ccccc2n1)N1CCN(c2cc(OC3CCC3)ncn2)CC1 [Example 82, (4-(6-cyclobutoxypyrimidin-4-yl)piperazin-1-yl)(quinoxalin-2-yl)methanone], which IC50 is on record?
Its IC50 is less than 3 µM.

For Cc1c(C(=O)N2CCN(c3cc(OCC(F)(F)F)ncn3)CC2)cnn1-c1ccccc1 [Example 148, (5-methyl-1-phenyl-1H-pyrazol-4-yl)(4-(6-(2,2,2-trifluoroethoxy)pyrimidin-4-yl)piperazin-1-yl)methanone], which IC50 is on record?
Its IC50 is less than 3 µM.

With Cn1nc(C(=O)N2CCN(c3cc(OCC(F)(F)F)ncn3)CC2)cc1C(F)(F)F [Example 29, (1-methyl-5-(trifluoromethyl)-1H-pyrazol-3-yl)(4-(6-(2,2,2-trifluoroethoxy)pyrimidin-4-yl)piperazin-1-yl)methanone] as the compound, how does the IC50 read?
Its IC50 is less than 3 µM.

Which IC50 does the source give for O=C(Cc1noc2ccccc12)N1CCN(c2cc(OC3CCC3)ncn2)CC1 [Example 111, 2-(benzo[d]isoxazol-3-yl)-1-(4-(6-cyclobutoxypyrimidin-4-yl)piperazin-1-yl)ethanone] here?
Its IC50 is less than 3 µM.

With CC(C)COc1cc(N2CCN(C(=O)c3cn(-c4ccccc4)nn3)CC2)ncn1 [Example 206, (4-(6-isobutoxypyrimidin-4-yl)piperazin-1-yl)(1-phenhyl-1H-1,2,3-triazol-4-yl)methanone] as the compound, how does the IC50 read?
The IC50 was less than 3 µM.

CC(C)COc1cc(N2CCN(C(=O)c3cc(C(F)(F)F)nn3C)CC2)ncn1 [Example 14, (4-(6-isobutoxypyrimidin-4-yl)piperazin-1-yl)(1-methyl-3-(trifluoromethyl)-1H-pyrazol-5-yl)methanone] was tested. Which IC50 did it give?
The IC50 was less than 3 µM.

How did the IC50 turn out when O=C(CCOc1ccc(F)cc1)N1CCN(c2cc(OC3CCC3)ncn2)CC1 [Example 140, 1-(4-(6-cylcobutoxypyrimidin-4-yl)piperazin-1-yl)-3-(4-fluorophenoxy)propan-1-one] was run?
The IC50 was less than 3 µM.

How did the IC50 turn out when CC(C)COc1cc(N2CCN(C(=O)c3csc(-c4cccnc4)n3)CC2)ncn1 [Example 190, (4-(6-isobutoxypyrimidin-4-yl)piperazin-1-yl)(2-(pyridin-3-yl)thiazol-4-yl)methanone] was run?
The IC50 was less than 3 µM.

Cc1c(C(=O)N2CCN(c3cc(OCC(C)C)ncn3)CC2)cnn1-c1ccccc1 [Example 135] was tested. Which IC50 did it give?
The IC50 was less than 3 µM.

How did the IC50 turn out when CC(C)COc1cc(N2CCN(C(=O)c3ccc4ccccc4n3)CC2)ncn1 [Example 18, (4-(6-isobutoxypyrimidin-4-yl)piperazin-1-yl)(quinolin-2-yl)methanone] was run?
The IC50 was less than 3 µM.

How did the IC50 turn out when O=C(NCC(=O)N1CCN(c2cc(OC3CCC3)ncn2)CC1)c1ccccc1 [Example 85, N-(2-(4-(6-cyclobutoxypyrimidin-4-yl)piperazin-1-yl)-2-oxoethyl)benzamide] was run?
Its IC50 is less than 3 µM.
